Molecules are shown by their SMILES.

In assay [1] the test system is c-myc. The experiment in a line: Real Time RT-PCR in SW480 cells, c-myc. The conditions noted are these: 25 μM; for ΔCT c-myc: relative to β-actin. The class given is cell-based, human. The protocol: (§1) The RNeasy Midi Kit (Qiagen) was used for RNA extraction and Real Time RT-PCR was performed according to the protocol provided with the SYBR Green PCR Master Mix Kit (Perkin Elmer Biosystems, Shelton, Conn.). The primers used for cyclin D1, axin2, hnkd, c-myc, c-jun, and fra-1 amplifications were: cyclin D1 forward primer:5′-[…]-CCTGCTG-3′ (SEQ ID NO: 32) reverse primer: 5′-[…]-3′ (SEQ ID NO: 33) leading to a product size of approximately 300 bp; axin2 forward primer: 5′-[…] GGAAA-CT-3′ (SEQ ID NO: 34) and reverse primer: 5′-[…]-GAGA-3′ (SEQ ID NO: 35); hnkd forward primer: 5′-[…] TTGCGT-3′ (SEQ ID NO: 36) and the reverse primer: 5′-[…] ACGT-3′ (SEQ ID NO: 37); c-myc forward primer: 5′-GAA-[…] CTGC-3′ (SEQ ID NO: 38) and reverse primer: 5′-[…]-G-3′ (SEQ ID NO: 39); c-jun forward primer: 5′-[…]-3′ (SEQ ID NO: 40) and reverse primer: 5′-[…]-3′ (SEQ ID NO: 41); fra-1 forward primer: 5′-ACC-[…]-[…]-3′ (SEQ ID NO: 42) and reverse primer: 5′-[…]-TT-3′ (SEQ ID NO: 43). β-actin was used for normalization. […]
(§2) 1 μg of mRNA, for each time point, was subjected to Real Time RT-PCR. Expression level of endogenous cyclin D1, c-myc, fibronectin, hnkd, axin2, c-jun, and BMP-4 were measured relative to β-actin. Quantitation of The ΔCycle of Threshold (CT) values was determined by subtracting the average values of each set by the corresponding average values obtained for β-actin. […]
(§3) The cyclin D1 gene is inappropriately expressed in many different tumor types, and is known to be a direct target of the Wnt/β-catenin pathway (Shtutman et al., “The cyclin D1 gene is a target of the beta-catenin/LEF-1 pathway,” Proc. Natl. Acad. Sci. USA 96:5522-27 (1999); Tetsu et al., “Beta-catenin regulates expression of cyclin D1 in colon carcinoma cells,” Nature 398:422-26 (1999)). […] Expression level of endogenous cyclin D1, c-myc, fibronectin, hnkd, axin2, c-jun, and BMP-4 were measured relative to β-actin. Quantitation of The ΔCycle of Threshold (CT) values was determined by subtracting the average values of each set by the corresponding average values obtained for β-actin. […]
A general note: Real-time PCR tracks product formation cycle by cycle.

The subject of assay [2] is c-jun. Put plainly: Real Time RT-PCR in SW480 cells, c-jun. Type of assay: cell-based, human. As to conditions: 25 μM; for ΔCT c-jun: relative to β-actin. The method, then:
as §1, §2, §3

On to `O=C1C(Cc2ccc(O)cc2)N2C(=O)CCN(C(=O)NCc3ccccc3)C2CN1Cc1cccc2ccccc12` (stereo not drawn) [COMPOUND 1], for which, in assay [1], the “mRNA c-myc (direction)” value is “↑”. For the same molecule, the figures for the ΔCT c-myc in assay [1] (4 hours) and in assay [1] (8 hours) were −0.9 and −2.4, respectively. Moreover, the “mRNA c-jun (direction)” value in assay [2] is recorded as “↑”. In addition, the figures for the ΔCT c-jun in assay [2] (4 hours) and in assay [2] (24 hours) were 0 and −2.9, respectively.
